The record followed here is PubChem BioAssay (NCI).

Test systems include A549 NSCLC; ACHN renal; BT-549 breast; COLO 205 colon; DU-145 prostate; EKVX NSCLC; HOP-62 NSCLC; HT29 colon; M14 melanoma; MALME-3M melanoma; NCI-H226 lung; NCI-H23 lung; RXF 393 renal; SNB-19 CNS; SNB-75 CNS; T-47D breast; TK-10 renal; NCI-H522 lung.
Holding throughout (assay): NCI anticancer screen, dose series, 48 h

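Cells were grown in 96-well plates and exposed to each compound for 48 hours at five concentrations; endpoints were interpolated linearly between bracketing concentrations, or set to the highest concentration if not reached. The concentration for full growth arrest is given as TGI.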

In the case of `COc1ccccc1NC(=S)Nc1cc(C)cc(C)n1`, the TGI with A549 NSCLC, with ACHN renal, in the test with BT-549 breast, in the test on COLO 205 colon, in the test on DU-145 prostate and in the test on EKVX NSCLC was > 100 µM each time. The TGI in the test with HOP-62 NSCLC, in the test with HT29 colon, in the test with M14 melanoma, in the test on MALME-3M melanoma, in the test on NCI-H226 lung and in the test with NCI-H23 lung was > 100 µM each time. Also, the TGI with RXF 393 renal, in the test with SNB-19 CNS, with SNB-75 CNS, with T-47D breast and in the test with TK-10 renal was > 100 µM throughout.

As for `O=C(O)c1ccccc1/C=N/NC1=NCCN1`, the TGI in the test on A549 NSCLC, in the test with ACHN renal, with BT-549 breast, in the test on COLO 205 colon, in the test with EKVX NSCLC and in the test on HOP-62 NSCLC was > 100 µM each time. Besides, the TGI in the test on HT29 colon, in the test with M14 melanoma, with MALME-3M melanoma, with NCI-H226 lung, in the test with NCI-H23 lung and in the test on NCI-H522 lung was > 100 µM each time. The TGI with RXF 393 renal, in the test on SNB-19 CNS, in the test with SNB-75 CNS, in the test on T-47D breast and with TK-10 renal was > 100 µM throughout.

With `CC1(C)C2CCC(CN)(C2)C1N` (centres undefined), the TGI with A549 NSCLC, in the test with ACHN renal, in the test on BT-549 breast, in the test with COLO 205 colon, with DU-145 prostate and with EKVX NSCLC was > 100 µM throughout. Moreover, the TGI in the test with HOP-62 NSCLC, with HT29 colon, in the test on M14 melanoma, in the test with MALME-3M melanoma, in the test with NCI-H226 lung and in the test with NCI-H23 lung was > 100 µM throughout. In addition, the TGI with RXF 393 renal, in the test with SNB-19 CNS, with SNB-75 CNS, in the test with T-47D breast and with TK-10 renal was > 100 µM throughout.

In the case of `Cc1cc(C)c2c(O)c(S(=O)(=O)c3ccc(Cl)cc3)c(=O)oc2c1`, the TGI with A549 NSCLC was > 100 µM; with BT-549 breast, > 100 µM; in the test with COLO 205 colon, > 100 µM; in the test with DU-145 prostate it was > 100 µM; in the test on EKVX NSCLC, 93 µM; in the test with HOP-62 NSCLC, > 100 µM. Further, the TGI in the test on HT29 colon, with M14 melanoma, with MALME-3M melanoma, in the test with NCI-H226 lung, in the test with NCI-H23 lung and with RXF 393 renal was > 100 µM in each case. Besides, the TGI with SNB-19 CNS, in the test on SNB-75 CNS and with T-47D breast was > 100 µM in each case.

With `Oc1c2cc(Cl)cc1COCc1cc(Cl)cc(c1O)COCc1cc(Cl)cc(c1O)COC2`, the TGI in the test on A549 NSCLC, with ACHN renal, with BT-549 breast, in the test on COLO 205 colon, with DU-145 prostate and in the test on EKVX NSCLC was > 100 µM in each case. For the same compound, the TGI is > 100 µM in the test on HOP-62 NSCLC; 64.7 µM with M14 melanoma; > 100 µM with NCI-H226 lung; 98.6 µM in the test on NCI-H23 lung; > 100 µM in the test on RXF 393 renal; > 100 µM with SNB-19 CNS. Also, the TGI in the test with SNB-75 CNS is 63.4 µM; with T-47D breast, > 100 µM; with TK-10 renal, > 100 µM.

Turning to `OC1(c2ccc(Cl)cc2)C(N2CCCC2)c2ccccc2C2=NCCN21` (centres undefined), the TGI in the test on A549 NSCLC was > 100 µM; with ACHN renal it was > 100 µM; in the test on BT-549 breast it was 65.2 µM; in the test on COLO 205 colon, 23.9 µM; in the test on DU-145 prostate, > 100 µM; in the test on EKVX NSCLC, > 100 µM. Moreover, the TGI in the test with HOP-62 NSCLC is > 100 µM; with HT29 colon, 32.4 µM; in the test with M14 melanoma, 31.7 µM; in the test with MALME-3M melanoma, 36.9 µM; in the test on NCI-H23 lung, 92.7 µM; with RXF 393 renal, 91.9 µM. The TGI with SNB-19 CNS is > 100 µM; with T-47D breast, 41 µM; in the test on TK-10 renal, 40 µM.

For the compound `Cc1cc2c(cc1C(=O)CCC(=O)O)CC1(C2)Cc2cc(C)c(C(=O)CCC(=O)O)cc2C1`, the TGI in the test on A549 NSCLC, in the test on ACHN renal, in the test with COLO 205 colon, in the test on DU-145 prostate, in the test on EKVX NSCLC and with HOP-62 NSCLC was > 100 µM throughout. Besides, the TGI with HT29 colon, in the test with M14 melanoma, in the test with MALME-3M melanoma, with NCI-H226 lung, with NCI-H23 lung and with NCI-H522 lung was > 100 µM throughout. The TGI in the test with RXF 393 renal, with SNB-19 CNS, with SNB-75 CNS, with T-47D breast and in the test on TK-10 renal was > 100 µM in each case.

For `O=c1c2ccccc2[nH]c2c(Cl)cc(Cl)c(NC3CCCCC3)c12`, the TGI in the test on A549 NSCLC is > 100 µM; in the test with ACHN renal, 37.7 µM; in the test with BT-549 breast, 67.3 µM; in the test on COLO 205 colon, > 100 µM; in the test on EKVX NSCLC, 76.8 µM; with HOP-62 NSCLC it was 60.8 µM. Also, the TGI was found to be 30.6 µM in the test with HT29 colon; 47.7 µM with M14 melanoma; 44.4 µM with NCI-H226 lung; 36.8 µM with NCI-H23 lung; 44 µM with NCI-H522 lung; 38.8 µM in the test with SNB-19 CNS. Also, the TGI in the test with SNB-75 CNS is 83.6 µM; in the test on T-47D breast, > 100 µM; in the test with TK-10 renal, 61.3 µM.

With `OC1(c2ccccc2)C2CCN(CC2)C1CN1CCOCC1` (centres undefined), the TGI in the test on A549 NSCLC, with ACHN renal, in the test on COLO 205 colon, in the test with DU-145 prostate, in the test on EKVX NSCLC and with HOP-62 NSCLC was > 100 µM in each case. In addition, the TGI in the test with HT29 colon, in the test on M14 melanoma, in the test with MALME-3M melanoma, with NCI-H226 lung, in the test on NCI-H23 lung and in the test with NCI-H522 lung was > 100 µM each time. Moreover, the TGI with RXF 393 renal, in the test with SNB-19 CNS, in the test on SNB-75 CNS, with T-47D breast and in the test on TK-10 renal was > 100 µM each time.

`COc1ccccc1N(CN1C(=O)CCC1C(=O)O)C(C)=O` (centres undefined): the TGI in the test with A549 NSCLC, with ACHN renal, in the test on COLO 205 colon, in the test on DU-145 prostate, in the test with EKVX NSCLC and with HOP-62 NSCLC was > 100 µM throughout. In addition, the TGI in the test with HT29 colon, in the test on M14 melanoma, with MALME-3M melanoma, in the test on NCI-H226 lung, with NCI-H23 lung and in the test with NCI-H522 lung was > 100 µM throughout. Further, the TGI in the test with RXF 393 renal, with SNB-19 CNS, with SNB-75 CNS, in the test with T-47D breast and in the test with TK-10 renal was > 100 µM throughout.

`O=C1c2[nH]c3ccc(Br)cc3c2CCN1Cc1ccc(Cl)cc1`: the TGI in the test with A549 NSCLC is 26.9 µM; in the test with ACHN renal, 22.7 µM; with COLO 205 colon it was 34.5 µM; in the test on DU-145 prostate, 28.3 µM; in the test with EKVX NSCLC it was > 100 µM; in the test with HOP-62 NSCLC, 26.4 µM. Also, the TGI in the test with HT29 colon was > 100 µM; with M14 melanoma, 28.5 µM; in the test with MALME-3M melanoma, 33.7 µM; in the test on NCI-H23 lung it was 32.3 µM; with NCI-H522 lung, 37.9 µM; in the test with RXF 393 renal, 36.4 µM. Moreover, the TGI in the test with SNB-19 CNS came to 32.7 µM; in the test with SNB-75 CNS, 38.5 µM; in the test on T-47D breast, 29.2 µM; in the test with TK-10 renal, 27.7 µM.

On to `CN(C)/N=C(/CC(O)(C(F)(F)F)C(F)(F)F)c1ccc([N+](=O)[O-])cc1`, for which the TGI in the test with A549 NSCLC, in the test on ACHN renal, with COLO 205 colon, with DU-145 prostate, in the test with EKVX NSCLC and in the test with HOP-62 NSCLC was > 100 µM in each case. Further, the TGI with HT29 colon, with M14 melanoma, in the test with MALME-3M melanoma, in the test on NCI-H226 lung, in the test on NCI-H23 lung and in the test on NCI-H522 lung was > 100 µM each time. Besides, the TGI in the test with RXF 393 renal, in the test with SNB-19 CNS, with SNB-75 CNS and in the test on T-47D breast was > 100 µM in each case.

Take `O=C1N[C@H]2c3c(Cl)sc(Cl)c3[C@@H](O)[C@H]2O1`: the TGI in the test with A549 NSCLC, in the test on ACHN renal, with BT-549 breast, in the test with COLO 205 colon, with DU-145 prostate and in the test with EKVX NSCLC was > 100 µM in each case. Also, the TGI with HOP-62 NSCLC, in the test on HT29 colon, with M14 melanoma, in the test with MALME-3M melanoma, in the test on RXF 393 renal and in the test with SNB-19 CNS was > 100 µM each time. The TGI in the test with SNB-75 CNS, in the test with T-47D breast and in the test with TK-10 renal was > 100 µM each time.
